# Data: ChEMBL document CHEMBL3431459, “Roche carnitine palmitoyltransferase modulator screening data (supplementary data associated with the publication CHEMBL2216752)”
# Legend:
# [1] = SUPPLEMENTARY: PAMPA permeability assay; format: physicochemical; settings: read-out: Permeability
# [2] = target: T1, Carnitine O-palmitoyltransferase 1, muscle isoform (Homo sapiens, UniProt Q92523); experiment: SUPPLEMENTARY: Inhibition of Carnitine palmitoyltransferase 1, muscle isoform; parameters: species or system Muscle tissue
# T1 sequence (Q92523 whole entry): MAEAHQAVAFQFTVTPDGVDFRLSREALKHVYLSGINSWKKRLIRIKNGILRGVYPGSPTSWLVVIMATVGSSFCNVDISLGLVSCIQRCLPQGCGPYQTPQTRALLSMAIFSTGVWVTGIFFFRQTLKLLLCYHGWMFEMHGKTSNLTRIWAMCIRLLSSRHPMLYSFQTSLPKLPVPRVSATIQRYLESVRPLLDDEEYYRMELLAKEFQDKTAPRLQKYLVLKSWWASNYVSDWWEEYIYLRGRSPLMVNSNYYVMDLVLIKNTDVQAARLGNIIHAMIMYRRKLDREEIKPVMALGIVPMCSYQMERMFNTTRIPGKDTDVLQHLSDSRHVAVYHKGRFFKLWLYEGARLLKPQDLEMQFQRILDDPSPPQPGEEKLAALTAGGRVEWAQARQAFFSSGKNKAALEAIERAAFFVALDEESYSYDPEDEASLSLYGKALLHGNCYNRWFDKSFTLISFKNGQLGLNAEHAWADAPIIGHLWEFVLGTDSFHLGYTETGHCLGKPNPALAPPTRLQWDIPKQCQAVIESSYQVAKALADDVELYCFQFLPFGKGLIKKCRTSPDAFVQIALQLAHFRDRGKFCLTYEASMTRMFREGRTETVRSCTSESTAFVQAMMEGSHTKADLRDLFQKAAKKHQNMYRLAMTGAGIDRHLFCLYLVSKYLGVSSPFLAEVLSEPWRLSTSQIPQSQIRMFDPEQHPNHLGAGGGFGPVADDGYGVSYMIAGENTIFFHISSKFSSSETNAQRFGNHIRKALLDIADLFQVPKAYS
# [3] = SUPPLEMENTARY: Lipophilicity (log D) Determination by high-throughput shake-flask; format: physicochemical; settings: octanol/water
# [4] = target: T2, Carnitine O-palmitoyltransferase 1, liver isoform (Homo sapiens, UniProt P50416); experiment: (§1) SUPPLEMENTARY: Inhibition of Carnitine palmitoyltransferase 1, liver isoform
# T2 sequence (P50416 whole entry): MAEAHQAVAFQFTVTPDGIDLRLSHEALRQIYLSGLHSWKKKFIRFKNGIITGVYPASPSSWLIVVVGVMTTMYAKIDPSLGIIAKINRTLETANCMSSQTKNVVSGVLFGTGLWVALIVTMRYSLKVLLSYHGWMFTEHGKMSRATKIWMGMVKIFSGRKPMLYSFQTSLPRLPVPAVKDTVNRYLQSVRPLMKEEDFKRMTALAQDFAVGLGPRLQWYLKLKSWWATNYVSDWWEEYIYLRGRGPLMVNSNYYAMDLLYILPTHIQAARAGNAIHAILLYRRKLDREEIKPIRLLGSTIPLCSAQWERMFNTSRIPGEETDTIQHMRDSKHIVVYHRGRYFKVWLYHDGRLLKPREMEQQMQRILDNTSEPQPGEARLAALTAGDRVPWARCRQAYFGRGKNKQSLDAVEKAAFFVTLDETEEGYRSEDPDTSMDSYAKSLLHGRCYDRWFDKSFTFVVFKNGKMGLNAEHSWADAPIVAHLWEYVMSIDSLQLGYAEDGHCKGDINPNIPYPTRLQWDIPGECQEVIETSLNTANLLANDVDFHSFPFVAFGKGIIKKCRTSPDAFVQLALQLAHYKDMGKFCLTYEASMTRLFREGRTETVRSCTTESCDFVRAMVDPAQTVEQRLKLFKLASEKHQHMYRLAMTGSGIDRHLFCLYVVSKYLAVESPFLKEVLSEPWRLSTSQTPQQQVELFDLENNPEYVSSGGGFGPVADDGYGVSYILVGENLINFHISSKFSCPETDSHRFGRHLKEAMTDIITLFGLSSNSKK
# [5] = target: T3, Carnitine O-palmitoyltransferase 1, liver isoform (Rattus norvegicus, UniProt P32198); experiment: as §1
# T3 sequence (P32198 whole entry): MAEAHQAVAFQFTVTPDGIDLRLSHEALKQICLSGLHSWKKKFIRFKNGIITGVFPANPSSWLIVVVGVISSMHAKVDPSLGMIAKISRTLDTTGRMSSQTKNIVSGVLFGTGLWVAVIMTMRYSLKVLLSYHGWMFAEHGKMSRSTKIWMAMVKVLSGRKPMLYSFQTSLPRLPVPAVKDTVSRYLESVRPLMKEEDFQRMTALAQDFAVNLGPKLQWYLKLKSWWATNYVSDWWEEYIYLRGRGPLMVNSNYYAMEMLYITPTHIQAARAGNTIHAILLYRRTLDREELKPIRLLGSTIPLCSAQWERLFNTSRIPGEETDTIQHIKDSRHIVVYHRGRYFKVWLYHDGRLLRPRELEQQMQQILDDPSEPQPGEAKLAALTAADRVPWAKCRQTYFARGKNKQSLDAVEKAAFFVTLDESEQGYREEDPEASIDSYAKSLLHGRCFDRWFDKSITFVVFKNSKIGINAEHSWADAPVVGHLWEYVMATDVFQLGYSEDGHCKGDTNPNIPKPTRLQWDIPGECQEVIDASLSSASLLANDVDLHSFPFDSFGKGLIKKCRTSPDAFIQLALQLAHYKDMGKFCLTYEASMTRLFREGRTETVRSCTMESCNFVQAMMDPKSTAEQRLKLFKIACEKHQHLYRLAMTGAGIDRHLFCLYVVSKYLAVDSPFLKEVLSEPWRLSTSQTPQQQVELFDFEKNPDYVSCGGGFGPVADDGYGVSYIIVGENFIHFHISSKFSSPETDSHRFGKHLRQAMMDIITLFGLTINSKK
# [6] = target: T4, Carnitine O-palmitoyltransferase 2, mitochondrial (Homo sapiens, UniProt P23786); experiment: (§2) SUPPLEMENTARY: Inhibition of Carnitine palmitoyltransferase 2
# T4 sequence (P23786 whole entry): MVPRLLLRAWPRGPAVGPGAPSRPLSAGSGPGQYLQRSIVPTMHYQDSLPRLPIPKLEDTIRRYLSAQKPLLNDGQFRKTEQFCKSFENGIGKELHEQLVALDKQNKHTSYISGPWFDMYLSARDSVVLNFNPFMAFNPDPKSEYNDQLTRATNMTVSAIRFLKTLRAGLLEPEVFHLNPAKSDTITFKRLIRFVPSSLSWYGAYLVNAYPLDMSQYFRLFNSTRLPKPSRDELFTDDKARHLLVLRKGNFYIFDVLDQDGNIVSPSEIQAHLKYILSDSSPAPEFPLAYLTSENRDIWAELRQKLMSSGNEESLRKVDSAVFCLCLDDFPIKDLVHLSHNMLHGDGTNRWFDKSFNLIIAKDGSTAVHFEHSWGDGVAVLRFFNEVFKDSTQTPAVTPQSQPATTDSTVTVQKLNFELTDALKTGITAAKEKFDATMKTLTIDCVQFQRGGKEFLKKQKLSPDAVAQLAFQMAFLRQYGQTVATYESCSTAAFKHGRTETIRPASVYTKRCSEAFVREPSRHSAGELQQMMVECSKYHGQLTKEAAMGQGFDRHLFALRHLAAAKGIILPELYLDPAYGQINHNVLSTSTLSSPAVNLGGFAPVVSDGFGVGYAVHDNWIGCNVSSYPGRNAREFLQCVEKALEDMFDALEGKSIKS
# [7] = target: T5, Carnitine O-palmitoyltransferase 2, mitochondrial (Rattus norvegicus, UniProt P18886); experiment: as §2
# T5 sequence (P18886 whole entry): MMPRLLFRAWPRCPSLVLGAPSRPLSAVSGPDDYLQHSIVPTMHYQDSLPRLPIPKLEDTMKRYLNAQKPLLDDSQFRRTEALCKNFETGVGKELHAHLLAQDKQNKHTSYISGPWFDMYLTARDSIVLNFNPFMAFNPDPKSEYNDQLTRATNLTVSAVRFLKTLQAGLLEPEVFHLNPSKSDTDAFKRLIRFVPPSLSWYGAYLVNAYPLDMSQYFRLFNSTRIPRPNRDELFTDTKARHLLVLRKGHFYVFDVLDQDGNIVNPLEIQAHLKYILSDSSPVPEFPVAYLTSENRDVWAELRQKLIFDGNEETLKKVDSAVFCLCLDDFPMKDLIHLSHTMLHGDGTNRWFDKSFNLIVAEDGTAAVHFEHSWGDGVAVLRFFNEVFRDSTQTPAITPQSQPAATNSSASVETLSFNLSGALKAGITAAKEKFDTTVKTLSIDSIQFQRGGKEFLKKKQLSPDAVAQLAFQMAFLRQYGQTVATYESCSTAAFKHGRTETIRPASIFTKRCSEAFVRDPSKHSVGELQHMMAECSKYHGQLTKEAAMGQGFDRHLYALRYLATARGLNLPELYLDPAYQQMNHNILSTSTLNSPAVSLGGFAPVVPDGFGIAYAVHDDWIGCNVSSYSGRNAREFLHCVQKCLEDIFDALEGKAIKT
# [8] = SUPPLEMENTARY: Lyophilisation Solubility Assay (LYSA); format: physicochemical; settings: read-out: Kinetic_solubility
SMILES,Papp [1],IC50 [2],logD [3],IC50 [4],IC50 [5],IC50 [6],IC50 [7],solubility kinetic [8]
COc1ccc(Cl)cc1S(=O)(=O)N1CCOc2ccc(C(=O)Nc3ccc(C(=O)O)c(Cl)c3)cc21,1.45 ×10⁻⁶ cm/s,3.58 µM,0.12,0.248 µM,0.1 µM,5.13 µM,21 µM,> 716 µg/mL
NC(=O)c1cccc(-c2n[nH]c([C@H]3CCCCN3C(=O)COc3ccccc3)n2)c1,2.25 ×10⁻⁶ cm/s,> 100 µM,2.16,0.0931 µM,0.563 µM,> 100 µM,> 100 µM,161 µg/mL
O=C(O)c1ccc(NC(=O)c2ccc(Cl)c(NS(=O)(=O)c3cc(Cl)cc(Cl)c3)c2)cc1,2.25 ×10⁻⁶ cm/s,53.1 µM,0.49,0.0861 µM,0.139 µM,25.7 µM,> 100 µM,13 µg/mL
NC(=O)c1cncc(-c2noc([C@H]3COCCN3C(=O)COc3ccccc3)n2)c1,2.86 ×10⁻⁶ cm/s,> 100 µM,1.05,0.168 µM,1.25 µM,> 100 µM,> 100 µM,191 µg/mL
NS(=O)(=O)c1cccc(-c2noc([C@H]3CCCCN3C(=O)COc3ccccc3)n2)c1,1.63 ×10⁻⁶ cm/s,> 100 µM,2.17,0.087 µM,0.205 µM,61.4 µM,57.9 µM,33 µg/mL
O=C1CNc2ccc(-c3nc([C@H]4CCCCN4C(=O)COc4ccccc4)no3)cc2N1,1.83 ×10⁻⁶ cm/s,> 100 µM,2.38,0.0941 µM,0.458 µM,21.2 µM,> 100 µM,23 µg/mL
O=C1Cc2cc(-c3noc([C@H]4CNCCN4C(=O)COc4ccccc4)n3)ccc2N1,2.77 ×10⁻⁶ cm/s,> 100 µM,1.09,0.105 µM,0.306 µM,58.9 µM,93.5 µM,312 µg/mL
CS(=O)(=O)NCc1cccc(-c2nc([C@H]3CCCCN3C(=O)COc3ccccc3)no2)c1,1.77 ×10⁻⁶ cm/s,> 100 µM,2.44,0.0654 µM,0.16 µM,22.8 µM,> 100 µM,94 µg/mL
O=C1COc2ccc(-c3nc([C@H]4CCCCN4C(=O)COc4ccccc4)no3)cc2N1,3.74 ×10⁻⁶ cm/s,> 100 µM,3.12,0.0358 µM,0.0893 µM,> 100 µM,> 100 µM,35 µg/mL
Cc1cc(-c2nc([C@H]3CCCCN3C(=O)COc3ccccc3)no2)n(C)n1,6.42 ×10⁻⁶ cm/s,> 100 µM,3.13,0.228 µM,0.33 µM,16.3 µM,> 100 µM,55 µg/mL
Cc1nn(C)c(-c2noc([C@H]3CCCCN3C(=O)COc3ccccc3)n2)c1Cl,1.68 ×10⁻⁶ cm/s,> 100 µM,3.61,0.0791 µM,0.252 µM,> 100 µM,> 100 µM,< 1 µg/mL
